Experimental findings from patent US4263291A, “3,7-Disubstituted-3-cephem-4-carboxylic acid compounds and processes for the preparation thereof” (Fujisawa Pharmaceutical Co., Ltd., priority 1976, dated 1981) are described below.

In brackets after ≈: the same amount, converted by molar mass. Where two headings read alike, the source gives them in different places.

Test in all cases: In vitro antibacterial activity, two-fold agar-plate dilution method
What all share (type): cell-based

One assay concerns E. coli NIHJ JC-2. Particulars: Escherichia coli, read-out: MIC (minimal inhibitory concentration). How it is done:
(§1) In vitro antibacterial activity was determined by the two-fold agar-plate dilution method as described below.
(§2) One loopful of an overnight culture of each test strain in Trypticase-soy broth (10^8 viable cells per ml.) was streaked on heart infusion agar (HI-agar) containing graded concentrations of antibiotics, and the minimal inhibitory concentration (MIC) was expressed in terms of μg/ml. aft er incubation at 37° C. for 20 hours.

The next assay concerns Sal. enteritidis. The following applies: Salmonella enterica, HI-agar, 37° C., 20 hours, read-out: MIC (minimal inhibitory concentration). The procedure:
as §1, §2

The test system of the next assay is Sh. flexneri 2a. The following applies: Shigella flexneri, HI-agar, 37° C., 20 hours, read-out: MIC (minimal inhibitory concentration). How it is done:
as §1, §2

A further assay concerns Staph. aureus 209P JC-1. The following applies: Staphylococcus aureus, read-out: MIC (minimal inhibitory concentration). The procedure:
as §1, §2

The mark [1] stands for this setting: NIHJJC2, E. coli NIHJ JC-2, HI-agar, 37° C., 20 hours.
The mark [2] stands for this setting: Staph. aureus 209P JC-1, HI-agar, 37° C., 20 hours.

`CO/N=C(\C(=O)NC1C(=O)N2C(C(=O)O)=C(CSc3nnnn3C)CSC12)c1csnn1` (stereo not drawn) [Test Compound (1), 7-[2-Methoxyimino-2-(1,2,3-thiadiazol-4-yl)acetamido]-3-(1-methyl-1H-tetrazol-5-yl)thiomethyl-3-cephem-4-carboxylic acid (syn isomer)]: the MIC in the assay with E. coli NIHJ JC-2 (setting [1]) turned out to be 0.78 µg/mL (≈ 1.57 µM); in the assay on Sal. enteritidis, 0.2 µg/mL (≈ 0.402 µM); in the assay on Sh. flexneri 2a it was 1.56 µg/mL (≈ 3.14 µM); with Staph. aureus 209P JC-1 (setting [2]), 3.13 µg/mL (≈ 6.29 µM).
Turning to `Cn1nnnc1SCC1=C(C(=O)O)N2C(=O)C(NC(=O)/C(=N\O)c3cnsc3)C2SC1` (stereo not drawn) [Test Compound (4), 7-[2-Hydroxyimino-2-(isothiazol-4-yl)acetamido]-3-(1-methyl-1H-tetrazol-5-yl)thiomethyl-3-cephem-4-carboxylic acid (syn isomer)], the MIC was determined as 1.56 µg/mL (≈ 3.23 µM) with E. coli NIHJ JC-2 (NIHJJC2, 20 h); 0.78 µg/mL (≈ 1.62 µM) in the assay with Sal. enteritidis; 0.39 µg/mL (≈ 0.808 µM) in the assay on Sh. flexneri 2a; 0.39 µg/mL (≈ 0.808 µM) in the assay on Staph. aureus 209P JC-1 (setting [2]).
As for `CO/N=C(/C(=O)NC1C(=O)N2C(C(=O)O)=C(CSc3nnnn3C)CSC12)c1csnn1` (stereo not drawn) [Test Compound (2), 7-[2-Methoxyimino-2-(1,2,3-thiadiazol-4-yl)acetamido]-3-(1-methyl-1H-tetrazol-5-yl)thiomethyl-3-cephem-4-carboxylic acid (anti isomer)], the MIC in the assay with E. coli NIHJ JC-2 (setting [1]) is 25 µg/mL (≈ 50.2 µM); with Sal. enteritidis, 6.25 µg/mL (≈ 12.6 µM); in the assay on Sh. flexneri 2a, 12.5 µg/mL (≈ 25.1 µM); in the assay on Staph. aureus 209P JC-1 (209P, 20 h) it was 12.5 µg/mL (≈ 25.1 µM).
For the compound `Cn1nnnc1SCC1=C(C(=O)O)N2C(=O)C(NC(=O)/C(=N\O)c3cnsn3)C2SC1` (stereo not drawn) [Test Compound (3), 7-[2-Hydroxyimino-2-(1,2,5-thiadiazol-3-yl)acetamido]-3-(1-methyl-1H-tetrazol-5-yl)thiomethyl-3-cephem-4-carboxylic acid (syn isomer)], the MIC with E. coli NIHJ JC-2 (setting [1]) amounted to 3.13 µg/mL (≈ 6.47 µM); in the assay on Sal. enteritidis, 1.56 µg/mL (≈ 3.23 µM); with Sh. flexneri 2a, 0.39 µg/mL (≈ 0.807 µM); in the assay with Staph. aureus 209P JC-1 (setting [2]), 0.78 µg/mL (≈ 1.61 µM).
